Some targets named below: Neutrophil collagenase (Homo sapiens, UniProt P22894); Stromelysin-1 (Homo sapiens, UniProt P08254); Collagenase 3 (Rattus norvegicus, UniProt P23097).
Experiment [1] deals with Matrix metalloproteinase-9 (Homo sapiens, UniProt P14780).
Description: Inhibition of Matrix metalloprotease-9
Another experiment deals with T1, Interstitial collagenase (Homo sapiens, UniProt P03956).
T1 sequence (P03956 whole entry): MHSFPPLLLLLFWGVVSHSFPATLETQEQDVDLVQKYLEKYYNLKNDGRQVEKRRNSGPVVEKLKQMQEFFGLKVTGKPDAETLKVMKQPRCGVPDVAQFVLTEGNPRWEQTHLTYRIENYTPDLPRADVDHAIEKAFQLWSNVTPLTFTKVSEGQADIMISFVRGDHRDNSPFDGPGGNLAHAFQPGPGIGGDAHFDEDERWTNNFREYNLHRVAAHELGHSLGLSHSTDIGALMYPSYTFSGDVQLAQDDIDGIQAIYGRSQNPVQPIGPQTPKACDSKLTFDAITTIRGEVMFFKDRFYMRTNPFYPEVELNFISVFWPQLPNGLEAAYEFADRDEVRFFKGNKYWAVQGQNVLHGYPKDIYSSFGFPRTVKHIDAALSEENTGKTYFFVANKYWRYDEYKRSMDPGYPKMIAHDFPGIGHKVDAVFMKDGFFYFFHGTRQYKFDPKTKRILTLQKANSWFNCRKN

Experiment [2] addresses T2, Matrilysin (Homo sapiens, UniProt P09237).
T2 sequence (P09237 whole entry): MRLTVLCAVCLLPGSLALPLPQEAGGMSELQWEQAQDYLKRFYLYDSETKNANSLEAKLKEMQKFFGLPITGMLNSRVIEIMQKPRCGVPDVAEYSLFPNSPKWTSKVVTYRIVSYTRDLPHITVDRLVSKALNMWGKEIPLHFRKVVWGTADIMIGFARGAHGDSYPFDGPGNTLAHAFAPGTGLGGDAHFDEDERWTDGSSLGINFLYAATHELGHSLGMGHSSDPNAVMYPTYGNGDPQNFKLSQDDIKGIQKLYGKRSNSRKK
Description: Inhibition of Matrix metalloprotease-7

Experiment [3] deals with T2, Matrilysin. The source holds these as a separate data set.
Description: Inhibition of Matrix metalloprotease-7

Where only a bound is given, the exact number is not on record here.

Chain of Neutrophil collagenase (P22894 whole entry): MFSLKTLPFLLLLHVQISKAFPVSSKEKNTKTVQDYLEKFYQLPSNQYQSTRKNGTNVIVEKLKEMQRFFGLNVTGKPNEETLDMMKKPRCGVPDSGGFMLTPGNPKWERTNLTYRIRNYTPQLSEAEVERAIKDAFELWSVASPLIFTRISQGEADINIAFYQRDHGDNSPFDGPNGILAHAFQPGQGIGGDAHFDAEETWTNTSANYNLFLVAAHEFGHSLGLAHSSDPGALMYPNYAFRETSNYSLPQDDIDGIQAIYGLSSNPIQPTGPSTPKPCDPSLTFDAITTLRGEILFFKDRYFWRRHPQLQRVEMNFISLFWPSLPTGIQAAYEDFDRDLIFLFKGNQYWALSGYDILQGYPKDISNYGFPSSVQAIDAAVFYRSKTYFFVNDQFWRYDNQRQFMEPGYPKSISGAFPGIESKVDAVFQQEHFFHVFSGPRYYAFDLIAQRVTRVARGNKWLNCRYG
Chain of Matrix metalloproteinase-9 (P14780 whole entry): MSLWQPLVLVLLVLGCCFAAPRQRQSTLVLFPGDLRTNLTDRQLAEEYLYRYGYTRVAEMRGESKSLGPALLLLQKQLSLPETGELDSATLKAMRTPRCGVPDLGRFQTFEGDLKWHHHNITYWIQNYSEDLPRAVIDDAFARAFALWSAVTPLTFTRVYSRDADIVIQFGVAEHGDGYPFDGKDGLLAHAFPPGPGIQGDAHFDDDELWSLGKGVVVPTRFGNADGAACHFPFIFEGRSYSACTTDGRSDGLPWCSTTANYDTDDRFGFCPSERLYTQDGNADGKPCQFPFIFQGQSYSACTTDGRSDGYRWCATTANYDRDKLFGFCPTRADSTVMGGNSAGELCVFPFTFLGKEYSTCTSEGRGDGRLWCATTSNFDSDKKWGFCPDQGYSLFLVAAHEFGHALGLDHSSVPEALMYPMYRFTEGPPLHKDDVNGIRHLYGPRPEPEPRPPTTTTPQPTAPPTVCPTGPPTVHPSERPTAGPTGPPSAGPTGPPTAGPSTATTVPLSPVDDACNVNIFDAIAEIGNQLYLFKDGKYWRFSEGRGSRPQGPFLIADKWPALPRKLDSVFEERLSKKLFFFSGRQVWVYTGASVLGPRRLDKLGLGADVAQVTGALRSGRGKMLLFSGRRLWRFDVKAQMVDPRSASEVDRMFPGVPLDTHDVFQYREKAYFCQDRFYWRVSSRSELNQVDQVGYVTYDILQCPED
Chain of Stromelysin-1 (P08254 whole entry): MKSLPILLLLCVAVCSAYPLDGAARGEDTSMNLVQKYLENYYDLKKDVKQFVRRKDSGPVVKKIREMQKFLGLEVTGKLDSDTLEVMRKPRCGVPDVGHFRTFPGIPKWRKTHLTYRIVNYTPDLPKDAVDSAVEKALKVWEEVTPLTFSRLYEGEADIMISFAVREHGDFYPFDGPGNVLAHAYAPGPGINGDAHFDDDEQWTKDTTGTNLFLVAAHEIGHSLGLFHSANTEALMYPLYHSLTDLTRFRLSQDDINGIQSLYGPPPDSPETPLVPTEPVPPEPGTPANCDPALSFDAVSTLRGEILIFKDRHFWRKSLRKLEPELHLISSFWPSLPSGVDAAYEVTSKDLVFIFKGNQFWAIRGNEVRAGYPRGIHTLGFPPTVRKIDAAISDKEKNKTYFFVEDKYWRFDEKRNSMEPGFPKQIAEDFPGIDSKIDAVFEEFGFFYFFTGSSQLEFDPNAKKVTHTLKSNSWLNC
Description for Collagenase 3: Inhibition of Matrix metalloprotease-13
Description for Interstitial collagenase: Inhibition of human Matrix metalloprotease-1
Description for Neutrophil collagenase: Inhibition of Matrix metalloprotease-8
Description for Stromelysin-1: Inhibition of Matrix metalloprotease-3

One may read the IC50 as the point on the concentration scale where inhibition reaches its midpoint. Turning to `COCCN1CN(S(=O)(=O)c2ccc(OC)cc2)[C@@H](C(=O)NO)CC1=O`, the IC50 in experiment [1] amounted to 52.5 nM; at Neutrophil collagenase, 102 nM; at Interstitial collagenase, 696 nM; on Matrilysin [2], 10000 nM; against Stromelysin-1, 180 nM.

On to `COc1ccc(S(=O)(=O)N2CCN(C(=O)OCc3ccccc3)CC[C@@H]2C(=O)NO)cc1`, for which the IC50 worked out at 1.8 nM in experiment [1]; 3.3 nM at Neutrophil collagenase; 97 nM against Interstitial collagenase; 14 nM on Stromelysin-1; 2.1 nM on Collagenase 3; 737 nM on Matrilysin [3].

Regarding `COc1ccc(S(=O)(=O)N2CCN(S(=O)(=O)c3cn(C)cn3)CC[C@@H]2C(=O)NO)cc1`, the IC50 in experiment [1] is 5.5 nM; against Neutrophil collagenase, 6.6 nM; at Interstitial collagenase it was 346 nM; against Stromelysin-1 it was 39.2 nM; against Collagenase 3, 2.4 nM; on Matrilysin [3], 2780 nM.

Take `COc1ccc(S(=O)(=O)N2CN(C(C)C)C(=O)C[C@@H]2C(=O)NO)cc1`: the IC50 in experiment [1] amounted to 4.2 nM; on Neutrophil collagenase, 6.3 nM; against Interstitial collagenase, 643 nM; against Matrilysin [2], 3460 nM; against Collagenase 3, 2.9 nM.

With `COc1ccc(S(=O)(=O)N2CN(C3CCCCC3)C(=O)C[C@@H]2C(=O)NO)cc1`, the IC50 in experiment [1] was determined as 3.3 nM; against Neutrophil collagenase it was 2.8 nM; at Interstitial collagenase, 465 nM; against Matrilysin [2], 776 nM; against Collagenase 3 it was 0.75 nM.

For the compound `COc1ccc(S(=O)(=O)N2CCN(Cc3ccccc3)C(=O)C[C@@H]2C(=O)NO)cc1`, the IC50 came to 1 nM in experiment [1]; 1.5 nM on Neutrophil collagenase; 13.6 nM on Interstitial collagenase; 88 nM on Matrilysin [2]; 3.3 nM against Stromelysin-1.

As for `COc1ccc(S(=O)(=O)N2CC[C@H](C(=O)NO)N(S(=O)(=O)c3ccc(OC)cc3)CC2)cc1`, the IC50 against Neutrophil collagenase came to 1.8 nM; against Interstitial collagenase, 28.9 nM; against Stromelysin-1, 6.3 nM; against Collagenase 3, 0.84 nM; against Matrilysin [3], 905 nM.

In the case of `COc1ccc(S(=O)(=O)N2C[C@@H]3CCCN3C(=O)C[C@@H]2C(=O)NO)cc1`, the IC50 at Interstitial collagenase came out at 1.2 nM; on Stromelysin-1 it was 3.4 nM; at Collagenase 3, 2 nM.

As to `COc1ccc(S(=O)(=O)N2CN(C)C(=O)C[C@@H]2C(=O)NO)cc1`, the IC50 in experiment [1] is 24.1 nM; at Neutrophil collagenase, 47.3 nM; against Interstitial collagenase it was 2200 nM; against Matrilysin [2], more than 10000 nM; against Collagenase 3, 7.9 nM.

Regarding `COc1ccc(S(=O)(=O)N2CN(C(C)(C)C)C(=O)C[C@@H]2C(=O)NO)cc1`, the IC50 in experiment [1] worked out at 1.1 nM; at Neutrophil collagenase, 1.5 nM; against Interstitial collagenase, 320 nM; against Matrilysin [2], 909 nM; against Collagenase 3, 0.34 nM.

With `COc1ccc(S(=O)(=O)N2CN(Cc3ccccc3)C(=O)C[C@@H]2C(=O)NO)cc1`, the IC50 is 6.8 nM in experiment [1], 6.4 nM against Neutrophil collagenase, 22.2 nM on Interstitial collagenase and more than 10000 nM against Matrilysin [2].

`COc1ccc(S(=O)(=O)N2CCN(C(C)C)C(=O)C[C@@H]2C(=O)NO)cc1`: the IC50 in experiment [1] turned out to be 4.1 nM; against Neutrophil collagenase it was 3.7 nM; on Interstitial collagenase, 22 nM; at Matrilysin [2] it was 369 nM; against Stromelysin-1 it was 6.5 nM; on Collagenase 3, 1.9 nM.

(Values after ChEMBL document CHEMBL1134017, “Heterocycle-based MMP inhibitors with P2' substituents” (Bioorg Med Chem Lett, 2001).)
